{"source": "patent US20120156704A1", "about": "“IN VITRO METHOD FOR DETECTING GP91PHOX AS A MARKER OF OXIDATIVE STRESS” (BIOS INTERNATIONAL S.R.L., priority 2009, published 2012)", "key": {"platelet NADPH oxidase": {"test_system": "platelet NADPH oxidase", "assay": "Platelet NADPH oxidase activation: ROS production in AA-stimulated platelets by cytofluorimetry", "format": "cell-based, human", "settings": "AA 0.5 mM", "description": "To obtain platelet rich plasma (PRP) from HC and HS patients, samples were centrifuged 15 min at 180 g. To avoid leukocyte contamination, only the top 75% of the PRP was collected. Platelet pellet was suspended in HEPES buffer, pH 7.4 (2×10^8 platelets/mL, unless otherwise noted) and processed differently according to the type of experiment to be carried out.\nTo test NADPH oxidase activity, the levels of ROS in platelets from 5 human healthy subjects were measured by cytofluorimetry in the presence and in the absence of specific NADPH oxidase inhibitors, such as apocynin and the gp91^phox blocking peptide gp91ds-tat. Platelets were incubated with 2′,7′-dichlorofluorescin diacetate […] for 15 minutes at 37° C. After incubation, 100 μl of the sample was treated with arachidonic acid (AA, 0.5 mM) in presence or less of apocynin (100 μM) or the gp91^phox specific blocking peptide (gp91ds-tat, 50 μM). Then 10 μl of each sample was diluted with 1 ml of PBS and analyzed by flow cytometry. Basal OFR level in resting platelets was expressed as mean fluorescence (MF), AA-induced OFR production was expressed as stimulation index (S.I.=mean level of fluorescence in AA-stimulated platelet/mean level of fluorescence in unstimulated platelets) (Pignatelli P et al. Blood (1998) 95:484-490."}, "platelets": {"test_system": "platelets", "assay": "sgp91phox in supernatant of platelets by ELISA with the monoclonal antibody of the invention", "format": "cell-based, human"}, "[1]": {"test_system": "polymorphonuclear leukocytes (PMN)", "assay": "sgp91phox in supernatant of PMN by ELISA", "format": "cell-based, human", "settings": "PMA 10 μM; unstimulated 1.53±0.66", "description": "Polymorphonuclear leukocytes (PMN) were isolated from freshly taken EDTA-blood from healthy volunteers (n=5, healthy subjects) by dextran enhanced sedimentation of red blood cells, Ficoll-Histopaque density centrifugation, lysis of remaining erythrocytes with distilled water and washing of cells with Hank's balanced salt solution (HBSS) in the absence of any divalent cations. Finally, the cell pellet was suspended in 1 ml of HBSS and stimulated with or without 10 μM of phorbol 12-myristate 13-acetate (PMA). To evaluate sgp91phox in PMN the supernatant was analyzed by ELISA method as above reported.\n(§1) To evaluate the source of sgp91phox we isolated platelets, PMN and lymphocytes/monocytes from the same blood sample."}, "sgp91phox": {"test_system": "sgp91phox", "assay": "sgp91phox in sera of the clinical study by the ELISA assay of the invention", "format": "in vivo, human", "settings": "group B", "description": "The samples tested were sera from the same sampling of the clinical study of Example 2, stored frozen at −80° C. up to the use.\nThe proprietary primary policlonal antibody against SEQ ID NO 1 and the primary monoclonal antibody against SEQ ID NO 3 (i.e., the proprietary antibody of the present invention from the hybridoma deposited at ATCC on Jun. 10, 2010 under No. SD-6311) already described above were diluted 1:100 with coating buffer (catalog. C3041, Sigma Chemicals) and 100 μl of this primary antibody solution were placed in 96-well ELISA plates for 1 h at room temperature (RT). After incubation the content of each well in the plates was removed and the wells were washed three times with washing buffer (Tris-buffered saline 50 mM, pH 8.0, Tween 20; catalog. T9039, Sigma Chemicals).\nSubsequently, 200 μl of saturation buffer containing 1% BSA (catalog T6789, Sigma Chemicals) were added to the wells for 30 minutes at RT. The wells were then washed three times with the washing buffer, as above.\n100 μl of standard or of sample to be assayed were then added to the wells and the incubation was carried out for 1 h at RT.\nA standard curve was obtained by using increasing concentrations of the gp91^phox peptide of SEQ ID NO 1 or of the peptide of SEQ ID NO 3 (i.e., 64 pg/ml; 32 pg/ml; 16 pg/ml; 8 pg/ml) obtained by diluting the peptides in buffer, and incubated for 1 h see FIG. 4, panel A and panel B.\n100 μl of a secondary goat-anti-rabbit IgG-HRP antibody (Santa Cruz, catalog sc2004) or of a secondary goat anti-mouse IgG-HRP antibody (Santa Cruz, catalog sc 2060) diluted 1:100 with coating buffer, were then incubated at RT for 1 h.\nAfter aspirating the contents of the wells and washing three times with washing buffer, as described above, 100 μl of substrate (Santa Cruz, catalog SK-4400) were added to the wells for 30 minutes at RT. At the end of the incubation, 100 μl of H2SO4 2M (Merck, catalog 30148297) were also added to the wells. Subsequently, reading of the developed color was carried out with a spectrophotometer at 450 nm.\nThe final concentration of the samples were calculated by using the proper standard curve obtained with a gp91^phox peptide, as described above."}, "platelet gp91phox": {"test_system": "platelet gp91phox", "assay": "gp91phox expression on platelets by flow cytometry in the clinical study", "format": "in vivo, human", "settings": "after 30 days of treatment", "description": "To evaluate gp91^phox expression on platelets, 50 μl of stabilized whole blood (see above) were incubated for 30 minutes with 5 μl of monoclonal antibody against gp91^phox (20 μg/ml; Santa Cruz), and 5 μl of PE-conjugated monoclonal antibody against CD61 (Coulter) (20 μg/ml), respectively, as described in Martino F. et al., PEDIATRICS (2008), supra. The samples incubated with the monoclonal antibody against gp91^phox were then incubated with a secondary IgG FITC-conjugated antibody against mouse. After incubation, 1 ml of 1× PBS was added to proceed with the cytofluorimetric analysis.\nIsotypic controls were carried out by preparing a sample with a non-specific anti-mouse IgG-FITC e IgG1-PE with the same ratio f/p for FITC e PE. The adequate concentration of the monoclonal antibodies used was determined in preliminary tests (not shown).\nAll the samples were analyzed within 15 minutes from dilution. FITC fluorescence was detected with an Epics XL-MCL cytometer (Coulter, Milan Italy) at 525 nm, while PE fluorescence was detected at 575 nm. All the parameters were grouped with a 4-decade logarithmic amplification.\nSpectral overlap was balanced by fluorescence compensation, as defined in preliminary tests. […] Platelets and platelet-platelet aggregates were identified by logical gating according to their CD61 phycoerythrin fluorescence and forward scatter characteristics. […]"}, "[2]": {"test_system": "hypercholesterolemic patients", "settings": "group B, diet + atorvastatin 10 mg/day, end of 30 days, p<0.001"}, "lymphocytes/monocytes": {"test_system": "lymphocytes/monocytes", "assay": "sgp91phox in supernatant of lymphocytes/monocytes by ELISA", "format": "cell-based, human", "settings": "LPS 100 ng/ml; unstimulated 1.11±0.55", "description": "Blood samples were collected in heparinized tubes (10 IU/ml). Lynphocytes/Monocyte were isolated after centrifugation of the blood from healthy volunteers (n=5, healthy subjects) with a polysucrose-sodium diatrizoate solution, 1.077 g/ml density and 280 mOsm osmolarity (Lymphoprep; Nycomed, Oslo, Norway) at 800 g at 20° C. The Lynphocytes/Monocyte cell layer was collected and the cells were thus washed two times in a solution of cold phosphate-buffered saline (pH 7.2), supplemented with 1% fetal calf serum and 2 mmol/l EDTA (Sigma-Aldrich, Milano, Italy). The cell suspension was stimulated with or without lipopolysaccharide (100 ng/ml) (LPS), sgp91 content in the supernatant was evaluated by ELISA method as above reported.\nas §1"}, "[3]": {"settings": "30 days atorvastatin vs baseline"}}}
{"compound": "CCCCC/C=C\\C/C=C\\C/C=C\\C/C=C\\CCCC(=O)O", "note": "[AA, arachidonic acid]", "values": [{"measurement": "ROS production after platelet activation", "setting": "platelet NADPH oxidase", "value": "increase"}, {"measurement": "sgp91phox in supernatant of stimulated platelets", "setting": "platelets; AA-stimulated, unstimulated 1.18±0.84", "value": "7.05 ± 2.04", "unit": "pg/mL"}]}
{"compound": "CCCCCCCCCCCCCC(=O)O[C@@H]1[C@@H](C)[C@@]2(O)[C@@H](C=C(CO)C[C@]3(O)C(=O)C(C)=C[C@@H]23)[C@@H]2C(C)(C)[C@]12OC(C)=O", "note": "[PMA, phorbol 12-myristate 13-acetate]", "values": [{"measurement": "sgp91phox in supernatant of stimulated PMN", "setting": "[1]", "value": "11.85 ± 3.23", "unit": "pg/mL"}]}
{"compound": "COc1cc(C(C)=O)ccc1O", "note": "[apocynin]", "values": [{"measurement": "effect on AA-induced ROS production in platelets", "setting": "platelet NADPH oxidase; apocynin 100 μM, gp91ds-tat 50 μM", "value": "inhibited"}, {"measurement": "levels of sgp91phox shed in the cell medium of AA-activated platelets", "setting": "platelets; specific NADPH oxidase inhibitors, ELISA of supernatant", "value": "decrease"}]}
{"compound": "CC(C)c1c(C(=O)Nc2ccccc2)c(-c2ccccc2)c(-c2ccc(F)cc2)n1CC[C@@H](O)C[C@@H](O)CC(=O)O", "note": "[atorvastatin]", "values": [{"measurement": "reduction in sgp91phox, ELISA with monoclonal antibody (SD-6311)", "setting": "sgp91phox; [3]", "value": "−25", "unit": "%"}, {"measurement": "reduction in sgp91phox, ELISA with polyclonal antibody", "setting": "sgp91phox; [3]", "value": "−33", "unit": "%"}, {"measurement": "sgp91phox serum level, ELISA with monoclonal antibody (SD-6311)", "setting": "sgp91phox; end of 30 days atorvastatin, from 32.5±4.6 at baseline, p<0.001", "value": "23.5 ± 6.5", "unit": "pg/mL"}, {"measurement": "sgp91phox serum level, ELISA with polyclonal antibody", "setting": "sgp91phox; end of 30 days atorvastatin, from 36.6±5.6 at baseline, p<0.001", "value": "24.5 ± 7.7", "unit": "pg/mL"}, {"measurement": "variation in platelet gp91phox after treatment", "setting": "platelet gp91phox", "value": "no significant variation"}, {"measurement": "serum total cholesterol", "setting": "[2]; from 276±46 at baseline", "value": "208 ± 38", "unit": "mg/dL"}, {"measurement": "urinary isoprostanes levels", "setting": "[2]; from 383±51 at baseline", "value": "241±58 pg/mg of creatinine"}]}
{"compound": "lipopolysaccharide [LPS]", "values": [{"measurement": "sgp91phox in supernatant of stimulated lymphocytes/monocytes", "setting": "lymphocytes/monocytes", "value": "7.5 ± 2.64", "unit": "pg/mL"}]}
